Among the data in patent US20050245527A1, “Nitrogen containing heterocyclic compounds and medicines containing the same” (priority 2002, published 2005) are IC50 and ED50 values, retold here.

Some results are limits rather than exact numbers.

One assay concerns sodium channels. The assay is classed as cell-based. Particulars: read-out: IC50 (μM), sodium channel-inhibiting activity; rat fetal cultured hippocampal neurons, SBFI fluorescence in the presence of 4-aminopyridine, 5 minutes after addition, 1 μM tetrodotoxin = 100%.
Assay [1] relates to left saphenous nerve of rats (ectopic firing). Briefly: Inhibition of ectopic firing. It is filed as in vivo. The settings on record: Rattus norvegicus, iv; rats with cut left saphenous nerve, urethane anesthesia, compound via catheter in right cervical vein, number of firings in 10 seconds; read-out: Inhibition of ectopic firing (ID50). The method, then: <Inhibition of Ectopic Firing>
(1) The inhibitory effect on ectopic firing was evaluated by the following method, with reference to Burchiel, K J., Exp. Neurol., 102, 249-253 (1988).
(2) The left saphenous nerve of rats, in which ectopic firing was observed, was cut near the knee joint, and approximately 3 mm was cut off to avoid reattachment of the cut nerve. After more than a week, the left saphenous nerve was exposed under urethane (1 g/kg body weight) anesthesia, and the proximal part up to approximately 1 cm from the cut site was detached from the surrounding tissue. A catheter was inserted in the right cervical vein beforehand for administration of the compound.
(3) The detached nerve was placed on a platinum hook electrode and wetted with liquid paraffin to avoid drying of the nerve. The electrode was connected to a microelectrode amplifier, and the change in potential was recorded from an oscilloscope through an A/D converter onto a computer. The recorded nerve firing was evaluated based on the number of firings in 10 seconds, using analyzing software (AcqKnowledge).

Take `O=c1[nH]ccnc1CN1CCC(COc2ccccc2C(F)(F)F)CC1` [Example 164, 3-[4-[2-(Trifluoromethyl)phenoxymethyl]piperidino]methyl-1H-pyrazin-2-one]: the IC50 in the assay with sodium channels worked out at 3.3 µM. In addition, in assay [1], the ED50 was less than 0.5 mg/kg.

Consider `O=c1[nH]ccnc1CN1CCC(COc2ccccc2OC(F)(F)F)CC1` [Example 167, 3-[4-[2-(Trifluoromethoxy)phenoxymethyl]piperidino]methyl-1H-pyrazin-2-one], for which the IC50 with sodium channels was determined as 2.3 µM. Also, in assay [1], the ED50 was less than 0.5 mg/kg.

As for `O=c1[nH]ccnc1CN1CCC(/C=C/c2sccc2Cl)CC1` [Example 168, (E)-3-[4-[2-(3-Chloro-2-thienyl)vinyl]piperidino]methyl-1H-pyrazin-2-one], the IC50 with sodium channels came out at 2.1 µM. The ED50 in assay [1] is 0.5 to 1 mg/kg.

As to `O=C(CC1CCN(Cc2ncc[nH]c2=O)CC1)c1sccc1Cl` [Example 169, 3-[4-[2-(3-Chloro-2-thienyl)-2-oxoethyl]piperidino]methyl-1H-pyrazin-2-one], the IC50 with sodium channels came out at 3.5 µM. The ED50 in assay [1] fell in the range of 0.5 to 1 mg/kg.

`O=c1[nH]ccnc1CN1CCC(C#Cc2ccccc2F)CC1` [Example 170, 3-[4-[(2-Fluorophenyl)ethynyl]piperidino]methyl-1H-pyrazin-2-one]: the IC50 in the assay on sodium channels is 0.4 µM. Besides, the ED50 in assay [1] is less than 0.5 mg/kg.

On to `Cc1ccccc1/C=C/C1CCN(Cc2ncc[nH]c2=O)CC1` [Example 171, (E)-3-[4-[2-(2-Methylphenyl)vinyl]piperidino]methyl-1H-pyrazin-2-one], for which, in the assay with sodium channels, the IC50 was 0.6 µM. Moreover, the ED50 in assay [1] is less than 0.5 mg/kg.

Turning to `O=c1[nH]ccnc1CN1CCC(CCc2sccc2F)CC1` [Example 172, 3-[4-[2-(3-Fluoro-2-thienyl)ethyl]piperidino]methyl-1H-pyrazin-2-one], in the assay with sodium channels, the IC50 is 5 µM. Besides, the ED50 in assay [1] was 0.5 to 1 mg/kg.

Take `O=C(CC1CCN(Cc2ncc[nH]c2=O)CC1)c1ccccc1Cl` [Example 174, 3-[4-[2-(2-Chlorophenyl)-2-oxoethyl]piperidino]methyl-1H-pyrazin-2-one]: the IC50 in the assay on sodium channels turned out to be 3.6 µM. In assay [1], the ED50 is less than 0.5 mg/kg.

With `O=c1[nH]ccnc1CN1CCC(/C=C/c2cccc(F)c2)CC1` [Example 176, (E)-3-[4-[2-(3-Fluorophenyl)vinyl]piperidino]methyl-1H-pyrazin-2-one], the IC50 with sodium channels was found to be 5.4 µM. Further, the ED50 in assay [1] fell in the range of 0.5 to 1 mg/kg.

In the case of `O=c1[nH]ccnc1CN1CCC(CCc2ccccc2F)CC1` [Example 177, 3-[4-[2-(2-Fluorophenyl)ethyl]piperidino]methyl-1H-pyrazin-2-one], the IC50 with sodium channels is 4.5 µM. The ED50 in assay [1] is less than 0.5 mg/kg.

Consider `O=C(Cc1ccccc1F)C1CCN(Cc2ncc[nH]c2=O)CC1` [Example 179, 3-[4-[2-(2-Fluorophenyl)acetyl]piperidino]methyl-1H-pyrazin-2-one], for which, in the assay with sodium channels, the IC50 turned out to be 4.6 µM. Further, the ED50 in assay [1] is less than 0.5 mg/kg.

Regarding `O=C(Cc1ccccc1Cl)C1CCN(Cc2ncc[nH]c2=O)CC1` [Example 183, 3-[4-[2-(2-Chlorophenyl)acetyl]piperidino]methyl-1H-pyrazin-2-one], the IC50 with sodium channels amounted to 2.6 µM. Moreover, the ED50 in assay [1] was less than 0.5 mg/kg.

Regarding `Cc1ccccc1CC(=O)C1CCN(Cc2ncc[nH]c2=O)CC1` [Example 184, 3-[4-[2-(2-Methylphenyl)acetyl]piperidino]methyl-1H-pyrazin-2-one], the IC50 in the assay with sodium channels was found to be 2.9 µM. Also, in assay [1], the ED50 was less than 0.5 mg/kg.

Turning to `O=c1[nH]ccnc1CN1CCC(c2nc(-c3ccccc3F)no2)CC1` [Example 187, 3-[4-[3-(2-Fluorophenyl)-1,2,4-oxadiazol-5-yl]piperidino]methyl-1H-pyrazin-2-one], the IC50 in the assay with sodium channels came to 3.5 µM. For the same molecule, the ED50 in assay [1] was in the range of 0.5 to 1 mg/kg.

Take `O=c1[nH]ccnc1CN1CCC(c2nc(-c3cccc(F)c3)no2)CC1` [Example 188, 3-[4-[3-(3-Fluorophenyl)-1,2,4-oxadiazol-5-yl]piperidino]methyl-1H-pyrazin-2-one]: the IC50 with sodium channels came out at 5 µM. Moreover, in assay [1], the ED50 was 0.5 to 1 mg/kg.

On to `Cc1cccc(CC(=O)C2CCN(Cc3ncc[nH]c3=O)CC2)c1` [Example 192, 3-[4-[2-(3-Methylphenyl)acetyl]piperidino]methyl-1H-pyrazin-2-one], for which, in the assay with sodium channels, the IC50 is 3.8 µM. The ED50 in assay [1] is 0.5 to 1 mg/kg.

For `COc1ccccc1CC(=O)C1CCN(Cc2ncc[nH]c2=O)CC1` [Example 193, 3-[4-[2-(2-Methoxyphenyl)acetyl]piperidino]methyl-1H-pyrazin-2-one], in the assay with sodium channels, the IC50 was determined as 2.9 µM. In assay [1], the ED50 was less than 0.5 mg/kg.

Take `O=C(Cc1c(F)cccc1F)C1CCN(Cc2ncc[nH]c2=O)CC1` [Example 195, 3-[4-[2-(2,6-Difluorophenyl)acetyl]piperidino]methyl-1H-pyrazin-2-one]: the IC50 with sodium channels came to 2 µM. Moreover, in assay [1], the ED50 lay in the range of 0.5 to 1 mg/kg.

With `O=c1[nH]ccnc1CN1CCC(COc2ccccc2)CC1` [Example 198, 3-[4-(Phenoxymethyl)piperidino]methyl-1H-pyrazin-2-one], the IC50 in the assay with sodium channels was 1.6 µM. In addition, in assay [1], the ED50 is less than 0.5 mg/kg.

As for `O=C(Cc1cccc(F)c1F)C1CCN(Cc2ncc[nH]c2=O)CC1` [Example 200, 3-[4-[2-(2,3-Difluorophenyl)acetyl]piperidino]methyl-1H-pyrazin-2-one], the IC50 in the assay on sodium channels came out at 1.6 µM. Besides, the ED50 in assay [1] was in the range of 0.5 to 1 mg/kg.

Turning to `O=c1[nH]ccnc1CN1CCC(COc2c(F)cccc2F)CC1` [Example 201, 3-[4-(2,6-Difluorophenoxymethyl)piperidino]methyl-1H-pyrazin-2-one], the IC50 with sodium channels was determined as 6.7 µM. Besides, the ED50 in assay [1] was 0.5 to 1 mg/kg.

`O=c1[nH]c2ccccc2nc1CN1CCC(COc2ccccc2F)CC1` [Example 204, 3-[4-(2-Fluorophenoxymethyl)piperidino]methyl-1H-quinoxalin-2-one]: in the assay with sodium channels, the IC50 is 8.1 µM. For the same molecule, the ED50 in assay [1] lay within 0.5 to 1 mg/kg.

With `COc1ccccc1OCC1CCN(Cc2nc3ccccc3[nH]c2=O)CC1` [Example 205, 3-[4-(2-Methoxyphenoxymethyl)piperidino]methyl-1H-quinoxalin-2-one], the IC50 in the assay on sodium channels amounted to 2.6 µM. For the same molecule, in assay [1], the ED50 was in the range of 0.5 to 1 mg/kg.

`O=C(Cc1ccccc1F)C1CCCN(Cc2ncc[nH]c2=O)C1` (stereo not shown) [Example 208, 3-[3-[2-(2-Fluorophenyl)acetyl]piperidino]methyl-1H-pyrazin-2-one]: the IC50 in the assay on sodium channels amounted to 5.5 µM. In assay [1], the ED50 was in the range of 0.5 to 1 mg/kg.

As to `Cc1ccccc1OCC1(O)CCN(Cc2ncc[nH]c2=O)CC1` [Example 210, 3-[4-Hydroxy-4-(2-methylphenoxymethyl)piperidino]methyl-1H-pyrazin-2-one], the IC50 in the assay with sodium channels is 6 µM. For the same molecule, the ED50 in assay [1] fell in the range of 0.5 to 1 mg/kg.

For the molecule `Cc1ccc(-c2ccccc2)n1CC1(O)CCN(Cc2ncc[nH]c2=O)CC1` [Example 212, 3-[4-Hydroxy-4-(2-methyl-5-phenylpyrrol-1-yl)methyl-piperidino]methyl-1H-pyrazin-2-one], in the assay on sodium channels, the IC50 was found to be 6.1 µM. For the same molecule, the ED50 in assay [1] fell in the range of 0.5 to 1 mg/kg.

Turning to `O=C(c1ccccc1F)N(C(=O)c1ccccc1F)C1(O)CCN(Cc2ncc[nH]c2=O)CC1` [Example 214, 2-Fluoro-N-(2-fluorobenzoyl)-N-[4-hydroxy-1-(3-oxo-3,4-dihydro-2-pyrazinylmethyl)piperidin-4-yl]benzamide], the half-inhibitory concentration (IC50) with sodium channels amounted to 8.7 µM. The ED50 in assay [1] lay within 0.5 to 1 mg/kg.

As for `Cc1ccccc1CCC1(O)CCN(Cc2ncc[nH]c2=O)CC1` [Example 222, 3-[4-Hydroxy-4-[2-(2-methylphenyl)ethyl]piperidino]methyl-1H-pyrazin-2-one], the IC50 with sodium channels amounted to 2.5 µM. In addition, the ED50 in assay [1] was in the range of 0.5 to 1 mg/kg.

With `O=c1[nH]ccnc1CN1CCC(F)(COc2ccccc2F)CC1` [Example 223, 3-[4-Fluoro-4-(2-fluorophenoxymethyl)piperidino]methyl-1H-pyrazin-2-one], the IC50 in the assay with sodium channels came to 6 µM. Moreover, the ED50 in assay [1] was 0.5 to 1 mg/kg.

On to `O=c1[nH]ccnc1CN1CCC(CCc2ccccc2F)(COc2ccccc2F)CC1` [Example 224, 3-[4-(2-Fluorophenoxymethyl)-4-[2-(2-fluorophenyl)ethyl]piperidino]methyl-1H-pyrazin-2-one], for which the IC50 with sodium channels is 1.6 µM. For the same molecule, the ED50 in assay [1] lay within 0.5 to 1 mg/kg.

For the molecule `Cc1ccccc1OCC1(CCc2ccccc2F)CCN(Cc2ncc[nH]c2=O)CC1` [Example 225, 3-[4-[2-(2-Fluorophenyl)ethyl]-4-(2-methylphenoxymethyl)piperidino]methyl-1H-pyrazin-2-one], the IC50 in the assay on sodium channels came to 1.6 µM. The ED50 in assay [1] lay in the range of 0.5 to 1 mg/kg.

For `O=c1cncc(CCN2CCC(COc3ccccc3Cl)CC2)[nH]1` [Example 235, 6-[2-[4-(2-Chlorophenoxymethyl)piperidino]ethyl]-1H-pyrazin-2-one], in the assay with sodium channels, the IC50 is 5 µM. The ED50 in assay [1] was less than 0.5 mg/kg.

Regarding `Cc1ccccc1OCC1CCN(CCc2cncc(=O)[nH]2)CC1` [Example 236, 6-[2-[4-(2-Methylphenoxymethyl)piperidino]ethyl]-1H-pyrazin-2-one], in the assay with sodium channels, the IC50 is 7 µM. Moreover, the ED50 in assay [1] is less than 0.5 mg/kg.

In the case of `O=c1cncc(CCN2CCC(COc3ccc(F)cc3F)CC2)[nH]1` [Example 239, 6-[2-[4-(2,4-Difluorophenoxymethyl)piperidino]ethyl]-1H-pyrazin-2-one], the IC50 in the assay with sodium channels turned out to be 9.1 µM. Besides, the ED50 in assay [1] lay within 0.5 to 1 mg/kg.

Consider `O=c1cncc(CCN2CCC(COc3cc(F)ccc3F)CC2)[nH]1` [Example 241, 6-[2-[4-(2,5-Difluorophenoxymethyl)piperidino]ethyl]-1H-pyrazin-2-one], for which the IC50 in the assay with sodium channels came to 5 µM. For the same molecule, the ED50 in assay [1] lay within 0.5 to 1 mg/kg.

In general, IC50 refers to the concentration at which inhibition is half-maximal.
